From patent US20260022143A1, “Cyclic Peptide Inhibitors of IL-23” (JANSSEN PHARMACEUTICA NV, priority 2022, published 2026)
Structures can show the parent of a compound that is named as a salt. Starred links: 1 amine or outer side, 2 acyl side, 3 side chain; linkers in the order of their positions; H or OH if unused. Positions of bridges follow the written chain, without caps; N, C: chain ends. Non-standard residues stand in square brackets, D forms with d. Residues, ends and D or L forms follow the SMILES beside them. *: point of attachment. X68 = COCCOCCOCCOCCOCCOCCC(=O)N(CCCC[C@@H](N[*:1])C(=O)[*:2])C(C)=O; Me3N+(CH2)2O(CH2)2O(CH2)2CO = C[N+](C)(C)CCOCCOCCC(=O)*; Trp(7-Me) = Cc1cccc2c(C[C@H](N)C(=O)O)c[nH]c12; 2Nal = N[C@@H](Cc1ccc2ccccc2c1)C(=O)O; AEF = NCCOc1ccc(C[C@H](N)C(=O)O)cc1; dNMeY = CN[C@H](Cc1ccc(O)cc1)C(=O)O; 3Pal = N[C@@H](Cc1cccnc1)C(=O)O; Lys(Me) = CNCCCC[C@H](N)C(=O)O; X53 = C[N+]1(CCOCCOCC*)CCOCC1; Pen = CC(C)(S)[C@H](N)C(=O)O; αMeK = C[C@](N)(CCCCN)C(=O)O; Thp = NC1(C(=O)O)CCOCC1; X3 = C[N+](C)(C)CCCCC*; Me2NCH2CH2 = CN(C)CC*; Tfa = O=C(C(F)(F)F)*; Sar = CNCC(=O)O; X2 = CNCC*

experiment: Exposed Polar Surface Area (EPSA); format: physicochemical; settings: SFC on Chirex 3014 column; sample 1 mM DMSO stock; read-out: EPSA
Text: Exposed Polar Surface Area (EPSA) is an experimental descriptor of molecular polarity obtained from chromatographic retention in supercritical fluid chromatography (SFC).
The stationary phase (Chirex 3014(S)-valine and (R)-1-(alpha-naphthyl) ethylamine) was selected for its balance of lipophilic and polar attributes and its capacity to separate compounds with wide polarity differences. The mobile phase consists of methanol (+Ammonium formate) and CO2. Polar compounds are retained stronger under these conditions and a low-slope gradient of methanol achieves elution based on increasing polarity of the mobile phase. Results are normalized using calibration standards generating a linear relationship between retention times and EPSA values. The unit of EPSA is Å^2.
Along with the measurement of compounds of interest, a series of 8 calibration standards (see Materials) are analyzed generating a linear relationship between retention times and EPSA value. The 8 compounds used as calibration standard have their own EPSA value defined by G. Goetz based on the comparison with TPSA (see G. Goetz, L. Philippe and M. Shapiro, “EPSA: A novel supercritical fluid chromatography technique enabling the design of permeable cyclic peptides,” ACS Med. Chem. Lett., vol. 5, pp. 1167-1172, 2014 for more information). The slope from the linear relationship between EPSA values of these eight compounds and their retention times is used to determine the EPSA value of each compound of interest that's measured under the same condition using the equation as below: […]
The mixture of calibrations standard is reinjected every 20 compounds to validate the stability of the retention time.
The mobile phase modifier consists of ammonium formate LC_MS grade (>99%) (CAS number 540-69-2) diluted to 20 mM in HPLC grade Methanol (MeOH, CAS number 67-56-1) and liquid C02 SFC grade (CAS number 124-38-9).
Antipyrine (CAS number: 60-80-0) Chlorpromazine hydrochloride (CAS number: 69-09-0), desipramine hydrochloride (CAS number: […]), pindolol (CAS Number: 13523-86-9), diclofenac (CAS number: 15307-79-6)), m-nitro benzoic acid (CAS number: 121-92-6), bumetanide (CAS number: 28395-03-1), furosemide (CAS number: 54-31-9) were purchased from Sigma Aldrich (Steihneim, Germany).
All analyses were performed on a ultra performance convergence chromatography (UPC™) apparatus (Waters, Milford, MA, USA) equipped with a sample manager, a binary solvent delivery pump (BSM), a column manager, a convergence manager (automated back pressure regulator), a photo diode array detector (DAD) with a high pressure flow cell, and a mass detector simple quadrupole QDa. After the UV detector, the effluent of the SFC was mixed with an eluent consist of mixture MeOH/water (+0.3% Ammonia) 95/5 delivered by a make up pump with a flow rate of 0.4 mL/min and then split to the QDa using a splitter. The instrument was controlled, and data were processed with Masslynx 4.1.
The Analyses were performed using a 4.6×50 mm Chirex 3014(S)-valine and (R)-1-(alpha- naphthyl) ethylamine column (Phenomenex, Le Pecq, France) with 5 um particle and 100A pore size. The flow rate was 4 mL/min with the outlet pressure set to 14 MPa. The injection volume was 2 μL. the mobile phase composition was varied from 5% to 60% modifier at 20%/ min in a linear gradient, holding at 60% for 1.45 min and reverting to the original 5% until the end of the run. Data are acquired during 5 min. An equilibration time of 1 min is applied between 2 injections resulting in an injection every 6 min. each sample is analyzed in duplicate, resulting in a sample to sample turnaround time of 12 min.
The column temperature was set to 35° C. The mass detector was used in full scan from 100 to 800 for small molecules and from 500 to 1200 for peptides.
Each sample is delivered by compound logistics from DMSO stock solution without dilution. The concentration is 1 mM and the volume is 60 μL.

Row | EPSA [A^2] | Compound
1 | 141 | CC(=O)N(C)CCCC[C@@H]1NC(=O)[C@H](Cc2c[nH]c3c(C)cccc23)NC(=O)[C@H]([C@@H](C)O)NC(=O)[C@H](CC(=O)N(C)C)NC(=O)[C@@H](NC(=O)CCOCCOCC[N+](C)(C)C)C(C)(C)SSC(C)(C)[C@@H](C(=O)N[C@@H](Cc2ccc(OCCOCCOCC[N+]3(C)CCOCC3)cc2)C(=O)N[C@@H](Cc2ccc3ccccc3c2)C(=O)NC2(C(=O)N[C@@H](CCCCN(C)C(C)=O)C(=O)N[C@@H](CC(N)=O)C(=O)N[C@@H](Cc3cccnc3)C(=O)N(C)CC(=O)N(C)C)CCOCC2)NC1=O [compound 223, cPEG3aCO-Pen(3)-N(N(Me)2)-T-7MeW-K(NMeAc)-Pen(3)-MMPEG3F-2Nal-THP-K(NMeAc)-N-3Pya-Sar-CON(Me)2] ({Me3N+(CH2)2O(CH2)2O(CH2)2CO}-[Pen]D(NMe2)T[Trp(7-Me)][Lys(Me)](Ac)[Pen]Y(X53)[2Nal][Thp][Lys(Me)](Ac)N[3Pal][Sar]-NMe2; disulfide 1-6)
2 | 162 | CC(=O)N[C@H](CCCNC(=N)N)C(=O)N[C@@H]1C(=O)N[C@@H](CC(=O)N(C)C)C(=O)N[C@@H]([C@@H](C)O)C(=O)N[C@@H](Cc2c[nH]c3c(C)cccc23)C(=O)N[C@@H](CCCCN(C)C(C)=O)C(=O)N[C@H](C(=O)N[C@@H](Cc2ccc(OCCCCC[N+](C)(C)C)cc2)C(=O)N[C@@H](Cc2ccc3ccccc3c2)C(=O)NC2(C(=O)N[C@@H](CCCCN(C)C(C)=O)C(=O)N[C@@H](CC(N)=O)C(=O)N[C@@H](Cc3cccnc3)C(=O)N(C)CC(=O)N(C)C)CCOCC2)C(C)(C)SSC1(C)C [compound 345, MeCO-r-Pen(3)-N(N(Me)2)-T-7MeW-K(NMeAc)-Pen(3)-TMAPF-2Nal-THP-K(NMeAc)-N-3Pya-Sar-CON(Me)2] (Ac-[dR][Pen]D(NMe2)T[Trp(7-Me)][Lys(Me)](Ac)[Pen]Y(X3)[2Nal][Thp][Lys(Me)](Ac)N[3Pal][Sar]-NMe2; disulfide 2-7)
3 | 156 | COCCOCCOCCOCCOCCOCCC(=O)N(CCCC[C@@H](NC(=O)C1(NC(=O)[C@H](Cc2ccc3ccccc3c2)NC(=O)[C@H](Cc2ccc(OCCN)cc2)NC(=O)[C@H]2NC(=O)[C@H](CCCCNC(C)=O)NC(=O)[C@H](Cc3c[nH]c4c(C)cccc34)NC(=O)[C@H]([C@@H](C)O)NC(=O)[C@H](CC(N)=O)NC(=O)[C@@H](NC(C)=O)C(C)(C)SSC2(C)C)CCOCC1)C(=O)N[C@@H](CC(N)=O)C(=O)N[C@@H](Cc1cccnc1)C(=O)N(C)CC(N)=O)C(C)=O [compound 123] (Ac-[Pen]NT[Trp(7-Me)]K(Ac)[Pen][AEF][2Nal][Thp][X68]N[3Pal][Sar]-NH2; disulfide 1-6)
4 | 155 | CC(=O)NCCCC[C@@H]1NC(=O)[C@H](Cc2c[nH]c3c(C)cccc23)NC(=O)[C@H]([C@@H](C)O)NC(=O)[C@H](CC(N)=O)NC(=O)[C@@H](NC(=O)C(F)(F)F)C(C)(C)SSC(C)(C)[C@@H](C(=O)N[C@@H](Cc2ccc(OCCN(C)C)cc2)C(=O)N[C@@H](Cc2ccc3ccccc3c2)C(=O)NC2(C(=O)N[C@@H](CCCCNC(C)=O)C(=O)N[C@@H](CC(N)=O)C(=O)N[C@@H](Cc3cccnc3)C(=O)N(C)CC(N)=O)CCOCC2)NC1=O [compound 53] (Tfa-[Pen]NT[Trp(7-Me)]K(Ac)[Pen]Y(Me2NCH2CH2)[2Nal][Thp]K(Ac)N[3Pal][Sar]-NH2; disulfide 1-6 (inferred))
5 | 153 | CC(=O)N[C@@H]1C(=O)N[C@@H](CC(=O)N(C)C)C(=O)N[C@@H]([C@@H](C)O)C(=O)N[C@@H](Cc2c[nH]c3c(C)cccc23)C(=O)N[C@@H](CCCCN(C)C(C)=O)C(=O)N[C@H](C(=O)N[C@@H](Cc2ccc(OCCN)cc2)C(=O)N[C@@H](Cc2ccc3ccccc3c2)C(=O)NC2(C(=O)N[C@@H](CCCCN(C)C(C)=O)C(=O)N[C@@H](CC(N)=O)C(=O)N[C@@H](Cc3cccnc3)C(=O)N(C)CC(N)=O)CCOCC2)C(C)(C)SSC1(C)C [compound 182, MeCO-Pen(3)-N(N(Me)2)-T-7MeW-K(NMeAc)-Pen(3)-AEF-2Nal-THP-K(NMeAc)-N-3Pya-Sar-CONH2] (Ac-[Pen]D(NMe2)T[Trp(7-Me)][Lys(Me)](Ac)[Pen][AEF][2Nal][Thp][Lys(Me)](Ac)N[3Pal][Sar]-NH2; disulfide 1-6)
6 | 154 | CNCCOc1ccc(C[C@H](NC(=O)[C@H]2NC(=O)[C@H](CCCCNC(C)=O)NC(=O)[C@H](Cc3c[nH]c4c(C)cccc34)NC(=O)[C@H]([C@@H](C)O)NC(=O)[C@H](CC(N)=O)NC(=O)[C@@H](NC(C)=O)C(C)(C)SSC2(C)C)C(=O)N[C@@H](Cc2ccc3ccccc3c2)C(=O)NC2(C(=O)N[C@@H](CCCCNC(C)=O)C(=O)N[C@@H](CC(N)=O)C(=O)N[C@@H](Cc3cccnc3)C(=O)N(C)CC(N)=O)CCOCC2)cc1 [compound 47] (Ac-[Pen]NT[Trp(7-Me)]K(Ac)[Pen]Y(X2)[2Nal][Thp]K(Ac)N[3Pal][Sar]-NH2; disulfide 1-6 (inferred))
7 | 145 | CC(=O)N(C)CCCC[C@H](NC(=O)C1(NC(=O)[C@H](Cc2ccc3ccccc3c2)NC(=O)[C@H](Cc2ccc(OCCCCC[N+](C)(C)C)cc2)NC(=O)[C@H]2NC(=O)[C@H](COCCOCC[N+](C)(C)C)NC(=O)[C@H](Cc3c[nH]c4c(C)cccc34)NC(=O)[C@H]([C@@H](C)O)NC(=O)[C@H](CC(=O)N(C)C)NC(=O)[C@@H](NC(=O)CCOCCOCC[N+](C)(C)C)C(C)(C)SSC2(C)C)CCOCC1)C(=O)N[C@@H](CC(N)=O)C(=O)N[C@@H](Cc1cccnc1)C(=O)N(C)CC(=O)N(C)C (relative stereo) [compound 247, cPEG3aCO-Pen(3)-N(N(Me)2)-T-7MeW-APEG2Ser(S*)-Pen(3)-TMAPF-2Nal-THP-K(NMeAc)-N-3Pya-Sar-CON(Me)2]
8 | 168 | CC(=O)NCCCC[C@@H]1NC(=O)[C@H](Cc2c[nH]c3c(C)cccc23)NC(=O)[C@H]([C@@H](C)O)NC(=O)[C@H](CC(N)=O)NC(=O)[C@@H](NC(C)=O)C(C)(C)SSC(C)(C)[C@@H](C(=O)N[C@@H](Cc2ccc(OCCN)cc2)C(=O)N[C@@H](Cc2ccc3ccccc3c2)C(=O)N[C@@](C)(CCCCN)C(=O)N[C@H](CCCCNC(C)=O)C(=O)N[C@@H](CC(N)=O)C(=O)N[C@H](CCCCN)C(=O)N(C)[C@H](Cc2ccc(O)cc2)C(N)=O)NC1=O [compound 5, MeCO-Pen(3)-N-T-7MeW-K(Ac)-Pen(3)-AEF-2Nal-aMeK-k(Ac)-N-dK-NMeDTyr-CONH2] (Ac-[Pen]NT[Trp(7-Me)]K(Ac)[Pen][AEF][2Nal][αMeK][dK](Ac)N[dK][dNMeY]-NH2; disulfide 1-6)
9 | 159 | CC(=O)NCCCC[C@H](NC(=O)C1(NC(=O)[C@H](Cc2ccc3ccccc3c2)NC(=O)[C@H](Cc2ccc(OCCN)cc2)NC(=O)[C@H]2NC(=O)[C@H](CCC(=O)N(C)C)NC(=O)[C@H](Cc3c[nH]c4c(C)cccc34)NC(=O)[C@H]([C@@H](C)O)NC(=O)[C@H](CC(N)=O)NC(=O)[C@@H](NC(=O)C(F)(F)F)C(C)(C)SSC2(C)C)CCOCC1)C(=O)N[C@@H](CC(N)=O)C(=O)N[C@@H](Cc1cccnc1)C(=O)N(C)CC(N)=O [compound 61] (Tfa-[Pen]NT[Trp(7-Me)]E(NMe2)[Pen][AEF][2Nal][Thp]K(Ac)N[3Pal][Sar]-NH2; disulfide 1-6 (inferred))
10 | 166 | CC(=O)NCCCC[C@@H]1NC(=O)[C@H](Cc2c[nH]c3c(C)cccc23)NC(=O)[C@H]([C@@H](C)O)NC(=O)[C@H](CC(N)=O)NC(=O)[C@@H](NC(C)=O)C(C)(C)SSC(C)(C)[C@@H](C(=O)N[C@@H](Cc2ccc(OCC[N+]3(C)CCOCC3)cc2)C(=O)N[C@@H](Cc2ccc3ccccc3c2)C(=O)NC2(C(=O)N[C@@H](CCCCNC(C)=O)C(=O)N[C@@H](CC(N)=O)C(=O)N[C@@H](Cc3cccnc3)C(=O)N(C)CC(N)=O)CCOCC2)NC1=O [compound 562, MeCO-Pen(3)-N-T-7MeW-K(Ac)-Pen(3)-MMoEF-2Nal-THP-K(Ac)-N-3Pya-Sar-CONH2]
